Where “and” joins values, the source holds several entries; their conditions need not be identical. Identical values can stand only once. Like-named read-outs stand apart in the source and are kept apart here. Each block holds one compound with its values, some of them ahead of it.
What was measured:
AtDHDPS1 = biological target: T1, AtDHDPS1 (Arabidopsis thaliana, UniProt Q9LZX6); assay: DHDPS enzyme inhibition assay, recombinant AtDHDPS1; type: biochemical
T1 construct: made in house
T1 sequence (Q9LZX6 40-365): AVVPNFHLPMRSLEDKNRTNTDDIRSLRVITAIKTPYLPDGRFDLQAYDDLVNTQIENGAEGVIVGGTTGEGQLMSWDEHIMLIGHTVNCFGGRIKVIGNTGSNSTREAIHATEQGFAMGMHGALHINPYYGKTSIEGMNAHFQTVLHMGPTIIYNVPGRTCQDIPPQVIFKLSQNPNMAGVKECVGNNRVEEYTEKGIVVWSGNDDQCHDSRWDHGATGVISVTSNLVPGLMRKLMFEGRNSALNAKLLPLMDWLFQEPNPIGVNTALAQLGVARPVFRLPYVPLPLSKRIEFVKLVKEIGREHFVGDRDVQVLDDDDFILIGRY

AtDHDPS2 [1] = biological target: T2, AtDHDPS2 (Arabidopsis thaliana, UniProt Q9FVC8); assay: DHDPS enzyme inhibition assay, recombinant AtDHDPS2; type: biochemical
T2 construct: made in house
T2 sequence (Q9FVC8 40-365): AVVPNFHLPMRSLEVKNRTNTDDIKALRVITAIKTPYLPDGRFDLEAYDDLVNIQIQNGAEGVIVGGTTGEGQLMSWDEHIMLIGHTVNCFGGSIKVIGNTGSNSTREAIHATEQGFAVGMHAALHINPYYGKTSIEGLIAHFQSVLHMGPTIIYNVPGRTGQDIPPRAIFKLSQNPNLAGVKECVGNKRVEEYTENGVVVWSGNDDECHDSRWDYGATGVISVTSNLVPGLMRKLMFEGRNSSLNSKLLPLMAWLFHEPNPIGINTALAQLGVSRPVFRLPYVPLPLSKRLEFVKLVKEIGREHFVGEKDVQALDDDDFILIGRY

AtDHDPR1 = biological target: T3, AtDHDPR1 (Arabidopsis thaliana, UniProt O80574); assay: DHDPR enzyme inhibition assay, recombinant AtDHDPR1; type: biochemical
T3 construct: made in house
T3 sequence (O80574 52-347): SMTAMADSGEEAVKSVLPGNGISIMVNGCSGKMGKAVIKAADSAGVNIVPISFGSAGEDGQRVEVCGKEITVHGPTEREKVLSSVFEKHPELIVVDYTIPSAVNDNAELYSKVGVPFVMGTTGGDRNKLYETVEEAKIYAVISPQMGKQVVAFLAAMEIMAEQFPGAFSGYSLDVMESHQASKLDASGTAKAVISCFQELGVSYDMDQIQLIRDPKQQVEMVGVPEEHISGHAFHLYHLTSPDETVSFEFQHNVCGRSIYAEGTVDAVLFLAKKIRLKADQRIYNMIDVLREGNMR
Procedure: (§1) Briefly, reaction mixtures were incubated at 30℃ for 12 min before a second 60-s incubation following the addition of excess E. coli DHDPS (51 µg ml^−1) for generation of the DHDP substrate. The relevant DHDPR isoform (2.6 µg ml^−1) was added to initiate the reaction, and substrate turnover measured spectrophotometrically at 340 nm via the associated oxidation of the cofactor NADPH. Experiments were performed in technical triplicates.

AtDHDPR2 = biological target: T4, AtDHDPR2 (Arabidopsis thaliana, UniProt Q8LB01); assay: DHDPR enzyme inhibition assay, recombinant AtDHDPR2; type: biochemical
T4 construct: made in house
T4 sequence (Q8LB01 54-349): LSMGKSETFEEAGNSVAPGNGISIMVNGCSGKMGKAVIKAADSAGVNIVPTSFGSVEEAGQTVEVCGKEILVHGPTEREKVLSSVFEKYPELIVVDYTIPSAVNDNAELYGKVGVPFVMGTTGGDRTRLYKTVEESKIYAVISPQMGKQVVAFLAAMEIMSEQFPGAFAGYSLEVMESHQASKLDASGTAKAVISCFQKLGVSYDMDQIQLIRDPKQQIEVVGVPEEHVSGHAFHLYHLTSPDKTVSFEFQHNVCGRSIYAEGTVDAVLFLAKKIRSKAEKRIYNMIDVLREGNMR
Procedure: as §1

AtDHDPR = assay: DHDPR enzyme inhibition, comparisons over both isoforms; type: biochemical, Arabidopsis thaliana
Procedure: as §1

Lolium rigidum = assay: Herbicidal activity, pre-emergence treatment of soil-grown plants; type: in vivo
Procedure: . Pre-wet seed-raising soil (pH 5.5) (Biogro, Dandenong South, VIC, Australia) supplemented with 0.22% (wt/wt) Nutricote N12 Micro 140 day-controlled release fertiliser (Yates, Sydney, NSW, Australia) was used. Ten seeds were sown at a depth of 0.5 cm into pots of pre-wet soil, following stratification at 4℃ for 21 days in the dark. Compounds dissolved in DMSO were diluted to working concentrations in H2O containing 0.01% (vol/vol) Agral (Syngenta, North Ryde, NSW, Australia) to a final DMSO concentration of 2% (vol/vol). Treatments were given by pipetting 2.0 ml of MBDTA-2, vehicle control or positive control (chlorosulfuron PESTANAL [Sigma-Aldrich, North Ryde, NSW, Australia]) directly onto seeds upon sowing and on each of the subsequent 2 days. Plants were grown in a chamber at 22℃ under a 16 hr light (100 µmol m^−2 s^−1)/8 hr dark schedule for 14 days before photos were taken. Roots and shoots were separated prior to drying at 70℃ for 72 hr. Experiments were performed in biological triplicates.

AtDHDPS2 [2] = biological target: T2, AtDHDPS2; design: method as in Soares da Costa et al., 2021; conditions: previously reported; ref Soares da Costa et al., 2021; cited from earlier work
[3] = [HBDTA] 0.000125 M, replicates 1-3
[4] = [HBDTA-2] 0.000125 M, replicates 1-3
[5] = [HBDTA-2] 0.0005 M, replicates 1-3
[6] = [MBDTA-2] 0.000125 M, limiting substrate and cofactor, replicates 1-3
[7] = 1200 mg l^−1, three pre-emergence treatments, 14 days, vs vehicle
[8] = Treated, 1200 mg l^−1, biological triplicates

SMILES: O=C(O)CN1C(=O)S/C(=C\c2ccc(O)cc2)C1=O [HBDTA, (Z)-2-(5-(4-hydroxybenzylidene)-2,4-dioxothiazolidin-3-yl)acetic acid]
- remaining activity at 125 µM (AtDHDPS1; [3]): 31.1%
- IC50 (AtDHDPS1; recombinant enzyme): 100 ± 0.95 µM
- remaining activity at 125 µM (AtDHDPS2 [1]; [3]): 37%
- IC50 (AtDHDPS2 [1]; recombinant enzyme): 105 ± 1.04 µM
- remaining activity at 125 µM (AtDHDPR1; [4]): 83.9%
- remaining activity at 250 µM (AtDHDPR1; [HBDTA-2] 0.00025 M, replicates 1-3): 8.06%
- remaining activity at 500 µM (AtDHDPR1; [5]): 0%
- IC50 (AtDHDPR1; substrate and cofactor at limiting concentrations, read-out: IC50 against AtDHDPR1): 169 ± 0.92 µM
- remaining activity at 125 µM (AtDHDPR2; [4]): 65.7%
- remaining activity at 500 µM (AtDHDPR2; [5]): 0%
- IC50 (AtDHDPR2; substrate and cofactor at limiting concentrations, read-out: IC50 against AtDHDPR2): 155 ± 0.9 µM
- fold less potent at the DHDPR target site relative to MBDTA-2 (AtDHDPR; ratio of IC50 values): > 18 fold

- fold greater IC50 with excess vs limiting substrate and cofactor (AtDHDPR1; AtDHDPR1): 10 fold
- IC50 (AtDHDPR1; IC50 against AtDHDPR1, excess substrate and nucleotide cofactor, 10-fold above KM): 72.7 ± 1.07 µM
- IC50 (AtDHDPR1; IC50 against AtDHDPR1, substrate and cofactor at limiting concentrations): 6.92 ± 0.92 µM
- remaining activity at 125 µM (AtDHDPR1; [6]): 9.11%
- remaining activity at 125 µM (AtDHDPR1; [MBDTA-2] 0.000125 M, saturating substrate and cofactor, replicates 1-3): 7.04%
- fold greater IC50 with excess vs limiting substrate and cofactor (AtDHDPR2; AtDHDPR2): 8 fold
- IC50 (AtDHDPR2; IC50 against AtDHDPR2, excess substrate and nucleotide cofactor, 10-fold above KM): 69.5 ± 1.06 µM
- IC50 (AtDHDPR2; IC50 against AtDHDPR2, substrate and cofactor at limiting concentrations): 8.58 ± 1.19 µM
- remaining activity at 125 µM (AtDHDPR2; [6]): 0%
- remaining activity at 250 µM (AtDHDPR2; [MBDTA-2] 0.00025 M, limiting substrate and cofactor, replicates 1-3): 0%
- remaining activity at 500 µM (AtDHDPR2; [MBDTA-2] 0.0005 M, saturating substrate and cofactor, replicates 1-3): 0.507%
- mechanism of inhibition (AtDHDPR; from IC50 shift with excess substrate and cofactor): competitive inhibitor
SMILES: COc1ccc(/C=C2\SC(=O)N(CC(=O)O)C2=O)cc1 [MBDTA-2, (Z)-2-(5-(4-methoxybenzylidene)-2,4-dioxothiazolidin-3-yl)acetic acid]
- effect on germination and growth (Lolium rigidum; 1200 mg l^−1): inhibition of plant germination and growth
- fold reduction in root dry weight (Lolium rigidum; [7]): ~ 2 fold
- fold reduction in shoot dry weight (Lolium rigidum; [7]): ~ 5 fold
- fold reduction in shoot fresh weight (Lolium rigidum; [7]): ~ 4 fold
- Dry Weight, Roots (Lolium rigidum; [8]): 7 mg and 10 mg
- Dry Weight, Shoots (Lolium rigidum; [8]): 10 mg and 8 mg
- Fresh Weight, Roots (Lolium rigidum; [8]): 44 mg and 33 mg and 58 mg
- Fresh Weight, Shoots (Lolium rigidum; [8]): 71 mg and 107 mg and 109 mg
- IC50 (AtDHDPS2 [2]): 64 ± 1 µM
